The source of these data is ChEMBL document CHEMBL1131697, “Toxicity and osmoprotective activities of analogues of glycine betaine obtained by solid phase organic synthesis towards Sinorhizobium meliloti” (1999).

Holding throughout (assay type): functional
The test system of test [1] is Sinorhizobium meliloti. Briefly: Tested for effect on doubling time of growth of Sinorhizobium meliloti 102F34 in Lactate aspartate(LAS) minimal medium (with addition of NaCl).
For test [2], the system named is Sinorhizobium meliloti. Briefly: Tested for effect on doubling time of growth of Sinorhizobium meliloti 102F34 in Lactate aspartate(LAS) minimal medium (without addition of NaCl).
Test [3] relates to Sinorhizobium meliloti. Briefly: Maximal attenuance reached in the stationary phase was reported against Sinorhizobium meliloti 102F34 in Lactate aspartate(LAS) minimal medium (with addition of NaCl).
For test [4], the system named is Sinorhizobium meliloti. Briefly: Maximal attenuance reached in the stationary phase was reported against Sinorhizobium meliloti 102F34 in Lactate aspartate(LAS) minimal medium (without addition of NaCl).
The nature of test [5]: Evaluated for substrate specificity of betaine uptake in salt-stressed Sinorhizobium meliloti. compound to substrate ratio 100:1.
The nature of test [6]: Evaluated for substrate specificity of betaine uptake in salt-stressed Sinorhizobium meliloti. compound to substrate ratio 10:1.
Test [7] can be described thus: Evaluated for substrate specificity of betaine uptake in salt-stressed Sinorhizobium meliloti. compound to substrate ratio 1:1. Details: unit not given here.

`C[N+]1(CC(=O)O)CCOCC1.[Cl-]`: the DT with Sinorhizobium meliloti [1] came out at 13 h; in the test with Sinorhizobium meliloti [2], 28 h. Further, the Dmax in the test on Sinorhizobium meliloti [3] is given as 1.9; with Sinorhizobium meliloti [4], 1. The Substrate specificity of betaine uptake in test [5] was determined as 43. The Betaine uptake (substrate specificity) in test [6] was found to be 7. Moreover, in test [7], the Ratio turned out to be 1.
Take `CC[N+](C)(C)CC(=O)O.[Cl-]`: the DT stood at 11 h in the test on Sinorhizobium meliloti [1] and 35 h in the test with Sinorhizobium meliloti [2]. Further, the results for the Dmax in the test with Sinorhizobium meliloti [3] and in the test with Sinorhizobium meliloti [4] were 2 and 0.7, respectively. Further, the Substrate specificity of betaine uptake in test [5] is 96. Also, the Betaine uptake (substrate specificity) in test [6] was found to be 79. Moreover, the Ratio in test [7] worked out at 35.
Regarding `C[N+]1(CC(=O)O)CCCC1.[Cl-]`, the results for the DT with Sinorhizobium meliloti [1] and in the test on Sinorhizobium meliloti [2] were 11 h and 45 h, respectively. Moreover, the Dmax in the test with Sinorhizobium meliloti [3] is 2.1; with Sinorhizobium meliloti [4] it was 0.6. The Substrate specificity of betaine uptake in test [5] came to 95. In addition, the Betaine uptake (substrate specificity) in test [6] is 61. Also, in test [7], the Ratio is 20.
With `CC[N+](C)(CC)CC(=O)O.[Cl-]`, the DT with Sinorhizobium meliloti [1] came out at 13 h; in the test with Sinorhizobium meliloti [2], 9 h. In addition, the results for the Dmax with Sinorhizobium meliloti [3] and with Sinorhizobium meliloti [4] were 2 and 1.6, respectively. Further, the Substrate specificity of betaine uptake in test [5] stood at 57. Also, in test [6], the Betaine uptake (substrate specificity) was 10. Further, in test [7], the Ratio is 4.
With `CC[N+](CC)(CC)CC(=O)O.[Cl-]`, the results for the DT in the test on Sinorhizobium meliloti [1] and in the test on Sinorhizobium meliloti [2] were 18 h and 7.9 h, respectively. Moreover, the Dmax was found to be 0.9 in the test with Sinorhizobium meliloti [3] and 1.8 in the test with Sinorhizobium meliloti [4]. In addition, the Substrate specificity of betaine uptake in test [5] turned out to be 27. Besides, in test [6], the Betaine uptake (substrate specificity) was 4. Moreover, the Ratio in test [7] was determined as 0.
For `C[N+](C)(C)CC(=O)O` [BETAINE], the DT in the test with Sinorhizobium meliloti [1] was 7 h; in the test with Sinorhizobium meliloti [2] it was 5.5 h. For the same molecule, the Dmax is reported as 2.1 in the test on Sinorhizobium meliloti [3] and 2 in the test with Sinorhizobium meliloti [4]. Also, the Substrate specificity of betaine uptake in test [5] was 99. In addition, the Betaine uptake (substrate specificity) in test [6] was determined as 94. For the same molecule, in test [7], the Ratio amounted to 80.
Regarding `CC(C)[N+](C)(C)CC(=O)O.[Cl-]`, the DT in the test on Sinorhizobium meliloti [1] stood at 20 h; in the test with Sinorhizobium meliloti [2], 6.9 h. Also, the Dmax in the test with Sinorhizobium meliloti [3] is recorded as 0.9; with Sinorhizobium meliloti [4] it was 1.8. The Substrate specificity of betaine uptake in test [5] stood at 45. The Betaine uptake (substrate specificity) in test [6] was found to be 4. The Ratio in test [7] is 0.
As to `CCCC[N+](C)(C)CC(=O)O.[Cl-]`, the DT in the test with Sinorhizobium meliloti [1] was found to be 20 h; in the test with Sinorhizobium meliloti [2], 6.4 h. Further, the Dmax in the test on Sinorhizobium meliloti [3] was found to be 0.9; with Sinorhizobium meliloti [4], 1.9. Also, the Substrate specificity of betaine uptake in test [5] came out at 23. Further, the Betaine uptake (substrate specificity) in test [6] is 10. The Ratio in test [7] is 1.
Regarding `C[S+](C)CC(=O)O.[Cl-]`, the values for the DT with Sinorhizobium meliloti [1] and in the test with Sinorhizobium meliloti [2] were 32 h and 35 h, respectively. In addition, the Dmax with Sinorhizobium meliloti [3] and in the test on Sinorhizobium meliloti [4] was 0.5 each time. Moreover, the Substrate specificity of betaine uptake in test [5] is 98. Besides, in test [6], the Betaine uptake (substrate specificity) worked out at 90. Moreover, in test [7], the Ratio is 52.
